Measurements taken from the NIST ThermoML archive (doi:10.1016/j.tca.2015.03.015).

Experiment: mn = molality of the nth substance listed, in mol/kg
Conditions: 100 kPa, Liquid; for speed of sound: Frequency=3 MHz, Sing-around technique in a fixed-path interferometer; for mass density: Vibrating tube method

O=C(CO)[C@@H](O)[C@H](O)[C@H](O)CO [D-fructose] + O
Conditions	mass density, 288.15 K [kg/m3]	mass density, 293.15 K [kg/m3]	mass density, 298.15 K [kg/m3]	mass density, 303.15 K [kg/m3]	mass density, 308.15 K [kg/m3]	speed of sound, 288.15 K [m/s]	speed of sound, 298.15 K [m/s]	speed of sound, 303.15 K [m/s]	speed of sound, 308.15 K [m/s]
m1 = 0.05	1003.31	1002.37	1001	999.53	998.08	–	–	1512.2	–
m1 = 0.15	–	1009.21	–	–	1004.78	–	–	1518.1	–
m1 = 0.25	1017.01	1015.91	1014.56	1013.07	–	1484.3	1513	–	1534.2
m1 = 0.35	1023.52	1022.43	1021.07	1019.48	1017.69	1491.3	1519.1	1530.3	1539.9
